# Literature values in paper PMC9395488, “First-in-human study of IM156, a novel potent biguanide oxidative phosphorylation (OXPHOS) inhibitor, in patients with advanced solid tumors” (Investigational New Drugs, 2022).
# Legend:
# [1] = test system: patients (pts) with advanced solid tumors; settings: cited from earlier work
# [2] = test system: A549; parameters: method as in ImmunoMet, 2018; settings: in A549; ref ImmunoMet, 2018; read-out: OXPHOS inhibition IC50; cited from earlier work
# [3] = test system: OXPHOS; parameters: method as in ImmunoMet, 2018; settings: at the same concentration; ref ImmunoMet, 2018; cited from earlier work
# [4] = test system: glioblastoma (GSC11); parameters: method as in ImmunoMet, 2018; settings: glioblastoma animal model, control group 47 days; ref ImmunoMet, 2018; cited from earlier work
# [5] = test system: Glioblastoma cells; parameters: method as in ImmunoMet, 2018; settings: 15 µM IM156, 500 µM temozolomide, ref ImmunoMet, 2018; cited from earlier work
compound,measurement,setting,value
Cc1nc(-c2nc(-c3ccc(OC(F)(F)F)cc3)no2)nn1Cc1cccc(N2CCC(S(C)(=O)=O)CC2)c1 [IACS-010759],"patients with PR, percent",[1],5%
same,patients with SD,[1],8 patients
same,"patients with SD, percent",[1],38%
same,"Grade ≥ 3 AEs, percent of patients","[1]; human, in vivo",43%
same,"diarrhea of any grade, percent of patients","[1]; human, in vivo",10%
same,"elevations of blood lactate, percent of patients","[1]; human, in vivo",71%
same,"nausea of any grade, percent of patients","[1]; human, in vivo",67%
same,"vomiting of any grade, percent of patients","[1]; human, in vivo",29%
same,patients with PR,[1]; patient with prostate cancer,one
"CN(C)C(=N)N=C(N)N [metformin, reference compound]",IC50,[2],~500 µM
"[H]/N=C(/N)N/C(=N/[H])NCCc1ccccc1 [phenformin, reference compound]",time until OXPHOS inhibition starts to show,[3],≥ 6 h
"Cn1nnc2c(C(N)=O)ncn2c1=O [temozolomide, reference compound]",median survival time,[4],58 days
same,neurosphere size,[5],decreased
